Results as given in the supplement of paper PMC10307832.

Assays:
Test in all cases: relative viability (nuclei count vs DMSO), 5 days (fraction); higher = more cells survive
BI-2536 + Phenformin = compound: CC[C@@H]1C(=O)N(C)c2cnc(Nc3ccc(C(=O)NC4CCN(C)CC4)cc3OC)nc2N1C1CCCC1 [BI-2536] + N=C(N)NC(=N)NCCc1ccccc1 [Phenformin] (partner 250 µM)
In short: (§1)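 For relative viability, nuclei counts in treated wells were divided by those in vehicle wells. Lung cancer cell lines had been pin-tool dosed in 1536-well plates the day after seeding and cultured for 5 days, then fixed and stained in one step (final 0.05% Triton X-100, 1% formaldehyde, 1 ug/ml Hoechst) and imaged at 4×. Doses were one drug alone or a fixed anchor-drug dose plus five library-drug doses (not always all listed) in √10 steps, and values are duplicate-plate medians.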

[1] = compound: CC1CC(=O)N(C2=CN=C(N=C2N1C3CCCC3)NC4=C(C=C(C=C4)C(=O)NC5CCN(CC5)C)OC)C [NPK76-II-72-1] + CS(=O)(=O)N1CCN(Cc2cc3nc(-c4cccc5[nH]ncc45)nc(N4CCOCC4)c3s2)CC1 [Pictilisib] (partner 1 µM)
In short: as §1

NPK76-II-72-1 + AZD7762 = compound: CC1CC(=O)N(C2=CN=C(N=C2N1C3CCCC3)NC4=C(C=C(C=C4)C(=O)NC5CCN(CC5)C)OC)C [NPK76-II-72-1] + NC(=O)Nc1cc(-c2cccc(F)c2)sc1C(=O)N[C@H]1CCCNC1 [AZD7762] (partner 0.2 µM)
In short: as §1

[2] = compound: CC1CC(=O)N(C2=CN=C(N=C2N1C3CCCC3)NC4=C(C=C(C=C4)C(=O)NC5CCN(CC5)C)OC)C [NPK76-II-72-1] + CC(=O)Nc1cccc(-n2c(=O)n(C3CC3)c(=O)c3c(Nc4ccc(I)cc4F)n(C)c(=O)c(C)c32)c1 [Trametinib] (partner 0.02 µM)
In short: as §1

Cell Line	relative viability (BI-2536 + Phenformin; first compound 0.01 µM)	relative viability (BI-2536 + Phenformin; first compound 0.03162 µM)	relative viability (BI-2536 + Phenformin; first compound 0.1 µM)	relative viability (BI-2536 + Phenformin; first compound 0.3162 µM)	relative viability (BI-2536 + Phenformin; first compound 1 µM)	relative viability ([1]; first compound 0.01 µM)	relative viability ([1]; first compound 0.03162 µM)	relative viability ([1]; first compound 0.1 µM)	relative viability ([1]; first compound 0.3162 µM)	relative viability ([1]; first compound 1 µM)	relative viability (NPK76-II-72-1 + AZD7762; first compound 0.01 µM)	relative viability (NPK76-II-72-1 + AZD7762; first compound 0.03162 µM)	relative viability (NPK76-II-72-1 + AZD7762; first compound 0.1 µM)	relative viability (NPK76-II-72-1 + AZD7762; first compound 0.3162 µM)	relative viability (NPK76-II-72-1 + AZD7762; first compound 1 µM)	relative viability ([2]; first compound 0.01 µM)	relative viability ([2]; first compound 0.03162 µM)	relative viability ([2]; first compound 0.1 µM)	relative viability ([2]; first compound 0.3162 µM)	relative viability ([2]; first compound 1 µM)
201T	0.38	0.431	0.276	0.315	0.23	0.642	0.618	0.66	0.7	0.677	0.579	0.759	0.62	0.618	0.619	0.716	0.701	0.709	0.689	0.716
NCI-H2170	0.435	0.413	0.34	0.167	0.202	0.281	0.357	0.279	–	0.333	0.799	0.891	0.892	0.358	0.975	0.884	0.934	0.93	0.654	0.892
NCI-H460	0.524	0.409	0.0506	0.0146	0.0134	0.238	0.297	0.367	0.34	0.365	0.631	0.652	0.666	0.555	0.75	0.271	0.14	0.141	0.123	0.174
HCC-15	0.474	0.485	0.149	0.103	0.108	0.704	0.778	0.706	0.748	0.786	1.18	1.32	0.549	1.16	1.23	0.35	0.329	0.342	0.357	0.393
LCLC-103H	0.306	0.338	0.295	0.152	0.143	0.692	0.761	0.671	0.609	0.679	–	0.851	0.789	0.852	0.745	–	0.673	0.556	0.709	0.693
NCI-H441	0.805	0.492	0.23	0.217	0.228	0.419	0.507	0.605	0.471	0.425	1.12	1.07	1.08	1.04	1.07	0.396	0.507	0.429	0.497	0.54
EPLC-272H	0.241	0.28	0.105	0.109	0.103	0.31	0.31	0.32	0.296	0.381	0.183	0.207	0.22	0.254	0.208	0.257	0.246	0.252	0.296	0.284
